Consider five molecules from US4243679A, “S-(3-Methyl-2-butenyl)cysteine” (priority 1978, dated 1981).

Where two headings read alike, the source gives them in different places.

The conditions of data set [1]: oral; cited from earlier work.
In data set [2] the test system is tracheobronchial secretion. The data set can be described thus: Secretogogue activity, Mawatari's technique (bronchial elimination of sodium fluoresceine), rat. The format is in vivo. As to the method:
(§1) The capacity of increasing tracheobronchial secretion was determined by the technique of bronchial elimination of sodium fluoresceine (Mawatari, Kagoshima Daigak Igaku Zasshi, 27, 561 (1976)) on two animal species and by two different administration routes: oral and parenteral.
(§2) Secretogogue activity - Mawatari's technique
(§3) Three dose levels n = 15-40 = number of test animals
(§4) Male animals were used -

For data set [3], the system named is mucus. Nature of the data set: Expectorant activity, Perry-Boyd technique. Format: in vivo. The conditions noted are these: rabbit; for % increase with regard to controls: fluid collected. The text has this: Determination of the expectorant activity was achieved by the technique of collecting mucus of anaesthetized rabbits breathing in conditioned air at body humidity and temperature (Perry and Boyd, J. Pharmacol. Exp. Ther., 23 65(194l)), and measuring the percentage increase of fluid collected in relation to controls.
Expectorant activity. Perry-Boyd technique, in
rabbit. Oral route, n = 12 = number of test

For data set [4], the system named is tracheobronchial secretion. Nature of the data set: Secretogogue activity, Mawatari's technique (bronchial elimination of sodium fluoresceine), mouse. Format: in vivo. The method, then: as §1, §2, §3, §4
Data set [5] has as its system respiratory mucus. The data set can be described thus: Modification of respiratory mucus composition, Giraldez-Gras method. The format is in vivo, rabbit. As to the method:
By means of an original technique (Giraldez and Gras), XXVI Congr. IUPS, Abstr. 777, Paris 1977)) which allows the collection of abundant samples of mucus on conscious animals and on consecutive days, the amount of eliminated mucus, its biochemical composition and its physico-chemical constants were studied. In addition to the two standards used before, N-acetylcysteine was also administered by topic route. |Modification of mucus composition. Giraldez-Gras Method, in rabbit |Oral route n = 12-30 = number of test animals

The test system of data set [6] is tracheobronchial secretion. Nature of the data set: Secretogogial activity, bronchial elimination of sodium fluoresceine, two animal species (overall statement). Format: in vivo, Mouse; Rat. The conditions noted are these: oral and parenteral. As to the method:
as §1

Data set [7] is described as follows: Acute toxicity, rat. The conditions noted are these: in vivo. The text has this:
(§5) The weight of the animals was of 180±20 g for rats and >25 g for mice.

Data set [8] in a line: Acute toxicity, two species (overall statement). Format: in vivo, Rat; Mouse. Conditions: oral and intraperitoneal.
Source text: as §5

Data set [9] deals with ciliary epithelium. Nature of the data set: Effect on the ciliary movement: mucus transport time in isolated dog trachea. The text has this: This vehicle was also used as the blank.
Mucus transport time, in isolated dog trachea

The nature of data set [10]: Acute toxicity, mouse. The conditions noted are these: in vivo.
Source text: as §5

Data set [11] can be described thus: Subacute toxicity in rat (one month). The format is in vivo. The conditions noted are these: 100, 300 and 1000 mg/kg/day. As to the method:
In order to study the toxicity of ITA 275 in the rat, this compound was given at doses of 100, 300 and 1000 mg/kg/day during one month, to 100 rats (.male./.female.=50/50)

A short description of data set [12]: Subchronic toxicity in rat (six months). The format is in vivo. The conditions noted are these: 100, 300 and 1000 mg/kg/day. The text has this: ITA 275 was given during six months to rats at the same doses as in the preceding test. The number of animals used was of 100 (.male./.female.=50/50).
[13] abbreviates: ip, confidence limits on next printed line.
[14] abbreviates: ip, confidence limits printed on next line.
Setting [15] is: rabbit, oral, 500 mg/kg, ***p < 0,005.
Setting [16] is: rabbit, 0,1 ml/kg sol. 20% (topic).

In general, ED50 refers to the dose that gives a 50% effect, or the effect in half of the subjects. With `CN(Cc1cc(Br)cc(Br)c1N)C1CCCCC1` [Bisolvon, Bromhexine], in data set [1], the “absorption when orally administered (in words)” value is on record as “well adsorbed when orally administered” and the “side effects (in words)” value is recorded as “practically no side effects”. Also, in data set [2] (p.o.), the ED50 result is given as “no corre-” and the “Max. efficiency % secretion increase” value is 14,8%. Also, the “% increase with regard to controls” value in data set [3] (20 mg/kg p.o.) is given as 20,6%. In addition, in data set [3] (40 mg/kg p.o.), the “% increase with regard to controls” value is listed as 38,1%. In addition, in [4] (i.p.), the “Max. efficiency % secretion increase” value is given as 26,0%. Moreover, the ED25 in [4] (ip, read-out: ED25) was 32 mg/kg. Besides, in [4] (p.o.), the ED25 entry was “no corre-” and the “Max. efficiency % secretion increase” value was 34,7%. Also, in data set [5] (rabbit, oral, 40 mg/kg), the “% Increase Muco-proteins” value was 4,9 ± 8,9%, the “% Increase SH Groups” value is given as 0,3 ± 13,4%, the “% Increase mucus weight” value is -6,1 ± 8,3% and the “% Increase total proteins” value was 3,1 ± 14,4%. For the same molecule, the “Secretogogial activity (in words)” value in [6] was “below statistical significance and did not follow a constant dose-effect sequence”.

In general, LD50 refers to the dose expected to kill half of the subjects tested. For `CC(C)=CCSC[C@H](N)C(=O)O` [ITA 275, S-(3-methyl-2-butenyl)-cysteine], the LD50 was 3100 mg/kg in data set [7] (setting [13]), over 4000 mg/kg in data set [7] (po), 2090 mg/kg in data set [10] (setting [14]) and over 4000 mg/kg in data set [10] (po). In addition, in data set [8], the “acute toxicity (in words)” value is “very low acute toxicity both by oral and intraperitoneal routes”. For the same molecule, in data set [8], the “acute toxicity compared with S-carboxymethylcysteine (in words)” value is listed as “even smaller than that of S-carboxymethylcysteine”. Further, the “% increase of ciliary transport time” value is reported as 162,3 ± 13,4% in data set [9] (10 mM, 0 min, p<0,001); 107,3 ± 21,8% in [9] (10 mM, 10 min, p<0,01); 16,2 ± 7,6% in [9] (10 mM, 20 min). The “duration of the increase in transport time” value in data set [9] (isolated dog trachea) was “at least 20 min”. Moreover, in data set [11], the general behaviour entry was “No abnormalities”. Moreover, the hematological values entry in [11] is “remained normal”. The liver weight result in data set [11] was “slight increase in liver weight”. Also, the “weight increase, food and water intake” value in data set [11] was “did not modify either the weight increase or the food and water intake”. Further, in [11], the “weight of all other organs” value is “did not undergo weight changes”. Moreover, the “Max. efficiency % secretion increase” value is 57,0% in [2] (p.o.), 42,7% in data set [4] (i.p.) and 20,7% in data set [4] (p.o.). Further, the 50% effective dose (ED50) in [2] (po, read-out: ED50) came to 447 mg/kg. Besides, the “% increase with regard to controls” value in [3] (500 mg/kg p.o.) is reported as 135,6%. Also, in data set [3] (oral route), the “Expectorant activity compared with S-carboxymethylcysteine (in words)” value is reported as “somewhat more active than S-carboxymethylcysteine”. Further, the ED25 was 218 mg/kg in [4] (ip, read-out: ED25) and 611 mg/kg in [4] (po, read-out: ED25). In addition, the tolerability entry in data set [12] is on record as “well tolerated”. Moreover, in [5] (rabbit), the “content of total proteins (in words)” value is recorded as “increase in the content of total proteins”. The “mucolytic property demonstrated by the release of -SH groups (in words)” value in data set [5] (rabbit) is listed as “does not present the mucolytic property of N-acetylcysteine”. Also, in data set [5] (rabbit), the “mucus elimination (in words)” value is given as “great increase in mucus elimination”. Further, in data set [5] (rabbit, oral, 500 mg/kg), the “% Increase SH Groups” value was 29,2 ± 14,4%. Moreover, in data set [5] (rabbit, oral, 500 mg/kg), the “% Increase mucus weight” value was 466,1 ± 343,5%. Further, the “% Increase Muco-proteins” value in data set [5] (setting [15]) is recorded as 32,7 ± 14,3%. Besides, the “Secretogogial activity (in words)” value in data set [6] is recorded as “showed activity”.

Take `CC(=O)N[C@@H](CS)C(=O)O` [N-acetylcysteine]: in [5] (setting [16]), the “% Increase mucus weight” value is 150,9 ± 30,8% and the “% Increase total proteins” value is recorded as 491,4 ± 311,1%. Besides, the “% Increase Muco-proteins” value in [5] (rabbit, 0,1 ml/kg sol. 20% (topic), **p < 0,01) is on record as 2450,3 ± 480,5%. Also, the “% Increase SH Groups” value in data set [5] (rabbit, 0,1 ml/kg sol. 20% (topic), *p < 0,1) is reported as 305,5 ± 102,9%.

Regarding `N[C@@H](CSCC(=O)O)C(=O)O` [S-Carboxymethylcysteine, S-carboxymethylcysteine], the LD50 is 2480 mg/kg in [7] (setting [13]), over 4000 mg/kg in [7] (po), 1780 mg/kg in data set [10] (setting [14]) and over 4000 mg/kg in data set [10] (po). Also, the results for the “Max. efficiency % secretion increase” value in [2] (p.o.), in data set [4] (i.p.) and in data set [4] (p.o.) were 39,3%, 22,3% and 6,3%, respectively. Further, the ED50 in data set [2] (po, read-out: ED50) was found to be 1070 mg/kg. In data set [3] (500 mg/kg p.o.), the “% increase with regard to controls” value is recorded as 110,9%. Moreover, the ED25 is 764 mg/kg in data set [4] (ip, read-out: ED25) and “no corre-” in data set [4] (p.o.). The “% Increase SH Groups” value in [5] (rabbit, oral, 500 mg/kg) was 11,6 ± 34,2%. Moreover, in data set [5] (rabbit, oral, 500 mg/kg), the “% Increase mucus weight” value was 16,4 ± 44,9%. Further, the “% Increase total proteins” value in data set [5] (rabbit, oral, 500 mg/kg) is 31,7 ± 27,4%. Moreover, the “% Increase Muco-proteins” value in [5] (setting [15]) was 131,9 ± 91,8%. The “Secretogogial activity (in words)” value in data set [6] was “below statistical significance and did not follow a constant dose-effect sequence”.

For `COc1cc2c3cc1Oc1cc(ccc1O)C[C@@H]1c4c(cc(OC)c(O)c4Oc4ccc(cc4)C[C@@H]3N(C)CC2)CC[N+]1(C)C` [d-turbocurarine], the “% increase of ciliary transport time” value in [9] (10^-4 g/ml, 0 min) is 69,8 ± 12,3%; in data set [9] (10^-4 g/ml, 10 min) it was 32,3 ± 14,5%.
